According to US20220315895A1, “METHODS OF MAKING OLIGOPOTENT AND UNIPOTENT PRECURSORS” (Transfusion Health, LLC, priority 2019, published 2022):

Legend:
[1] = tested on: expanded cord blood CD34+ cells, granulocyte precursor populations; experiment: Granulocyte Differentiation Culture, precursor phenotyping (Example 39); format: cell-based, human
Text: The remaining cells from duplicate flasks were pooled, and CD34+ cells were re-enriched using the CD34 MicroBead Kit—UltraPure (Miltenyi Biotec). CD34 purity was verified by flow cytometry. Enriched CD34+ cells were then placed into Granulocyte Differentiation Culture, described below.
Granulocyte Differentiation Cultures were initiated prior to culture in Compound 1.010 (Unexpanded Granulocyte Differentiation Culture), following 21 days of culture in Compound 1.010 (+Formula I-expanded Differentiation Culture), or following 21 days of culture in Control condition (Control-expanded Differentiation Culture). Purified CD34+ cells were plated at 1000 cells per well in a 48-well plate, in granulocyte differentiation medium, made by combining StemSpan SFEM and StemSpan 100X Myeloid Expansion Supplement (formulated for differentiation of granulocytes) containing SCF, TPO, G-CSF, and GM-CSF (STEMCELL). Cells were plated in 300 μl/well. Unexpanded cells were plated in triplicate; Formula I and Control-expanded cells were plated in quadruplicate. Plates were then placed in a humidified incubator at atmospheric oxygen and 5% CO2. Exact cell numbers dispensed per well were quantified with flow cytometry for later calculations.
On days 7, and 10, additional differentiation medium was prepared and cells were passaged to fresh wells.
On days 7 and 13 of Granulocyte Differentiation Culture, a portion of the culture was removed for analysis and quantification of granulocyte differentiation via flow cytometry. Cells were stained with antibodies to CD16, CD15, CD14, CD13, CD11b, and CD34. Cells were gated into granulocyte precursor populations of promyelocyte (CD34−/CD14−/CD15+/CD16-/CD13high/CD11b−), myelocyte (CD34−/CD14−/CD15+/CD16−/CD13dim/CD11b+) and “metamyelocyte+” (CD34−/CD14−/CD15+/CD11b+/CD13+/CD16+). Promyelocyte is the least mature subset, myelocytes are at an intermediate level of maturity, and “metamyelocyte+” encompasses cells at the highest levels of granulocyte maturation, including metamyelocytes and mature neutrophils. Fractional representation and total numbers of granulocyte precursor subsets were calculated. Cell numbers calculated at day 13 account for passaging.

CD56+ NK lineage cells = experiment: NK-cell Maturation Culture (Example 41); format: cell-based, human; details: for % Mature cells: CD3−/CD19−/CD56+ of Live / % Mature cells: CD16+ of Live/CD3−/CD19−/CD56+ / % Mature cells: CD94+ of Live/CD3−/CD19−/CD56+ / % Mature cells: CD161+ of Live/CD3−/CD19−: NK, +Formula I-expanded CD34+ cells
Method: Following 14 days in Lymphoid Progenitor Differentiation Cultures, cells were placed into T- and NK-cell Maturation Cultures.
For NK-cell Maturation Cultures, cells from L Diff Cultures were plated at 25,000 cells per well in TC-treated 48-well plates with 250 μl of NK-cell Differentiation Medium, comprising StemSpan SFEM II medium with StemSpan NK Cell Differentiation Supplement and UM171 (STEMCELL Technologies), prepared according to the manufacturer's instructions, except substituting UM171 at 100 nM for the 1 μM UM729 called for in the protocol.
Following 4 days of culture, NK- and T-cell Maturation Cultures' medias were replenished by adding an equal volume of the same culture media added on day 14. At days 21 and 25 of NK- or T-cell Maturation Cultures, half-media changes were performed by removing half of the total volume of media without disturbing cells and adding media freshly prepared as on day 14.
Following 7 and 14 days in NK- and T-cell Maturation Culture (21 and 28 days from initiation of Lymphoid Differentiation Culture, respectively), cells were stained with antibodies to CD56, CD3, CD161, CD94, and CD16 and analyzed via flow cytometry to quantify T and NK lineage phenotypes.
“Adult Peripheral Blood Unit Equivalents per CBU” was calculated by multiplying each condition's Scaled Output (per CD34+ cell) by 10^6, a conservative estimate of the number of CD34+ cells in an umbilical cord blood unit, then dividing that quantity by the number of CD56+, CD3+ or CD8+ cells typically found in a unit of donated adult peripheral blood: 5×10^7 (CD56+), 10^9 (CD3+) or 3×10^8, according to Invitrogen (https://assets.thermofisher.com/TFS-Assets/LSG/brochures/I-076357%20cell%20count%20table%20topp_WEB.pdf).

[2] = +Formula I Conditions, 13 days in Granulocyte Differentiation Culture, N 4
[3] = Formula I-expanded (21 days), seven days Granulocyte Differentiation Culture

CC(C)(C)C(=O)Nc1ccc2c(c1)C(O)c1ccccc1-2 (stereo not drawn) [Compound 1.010]
Metamyelocyte+, Mean % of CD15+ cells [1, 2]: 35.2%
Myelocyte, Mean % of CD15+ cells [1, 2]: 36.8%
Promyelocyte, Mean % of CD15+ cells [1, 2]: 28%
cells remaining undifferentiated, without expression of CD15 [1, 3]: 20%
cells still expressing CD34 [1, 3]: 1.9%
cells with high CD16 indicative of full differentiation to neutrophils [1, 3]: No cells were detected with high CD16
metamyelocytes (CD34−/CD14−/CD15+/CD13+/CD11b+/CD16+), of cultured cells [1, 3]: 8%
myelocytes (CD34−/CD14−/CD15+/CD13low/CD11b+/CD16−), of cultured cells [1, 3]: 15%
promyelocytes (CD34−/CD14−/CD15+/CD13+/CD11b−/CD16−), of cultured cells [1, 3]: 55%
CD56+ NK cells, of total live cells (CD56+ NK lineage cells; CD34+ cells first expanded for 14 days in +Formula I conditions): 93%
% Mature cells: CD3−/CD19−/CD56+ of Live (CD56+ NK lineage cells; Lymphoid Diff day 21): 91%
% Mature cells: CD16+ of Live/CD3−/CD19−/CD56+ (CD56+ NK lineage cells; Lymphoid Diff day 21): 31%
% Mature cells: CD94+ of Live/CD3−/CD19−/CD56+ (CD56+ NK lineage cells; Lymphoid Diff day 21): 7.8%
% Mature cells: CD161+ of Live/CD3−/CD19− (CD56+ NK lineage cells; Lymphoid Diff day 21): 81%
% Mature cells: CD3−/CD19−/CD56+ of Live (CD56+ NK lineage cells; Lymphoid Diff day 28): 95%
% Mature cells: CD16+ of Live/CD3−/CD19−/CD56+ (CD56+ NK lineage cells; Lymphoid Diff day 28): 16%
% Mature cells: CD94+ of Live/CD3−/CD19−/CD56+ (CD56+ NK lineage cells; Lymphoid Diff day 28): 3.5%
% Mature cells: CD161+ of Live/CD3−/CD19− (CD56+ NK lineage cells; Lymphoid Diff day 28): 89%
